Reference: patent US4820873A, “Pyrene derivatives” (priority 1984, dated 1989)
Counter-ions that a name gives are not always drawn.

What was measured:
[1] = test system: Candida albicans (CN1863); assay: Antifungal screening, Candida albicans, broth and agar dilution assays; format: cell-based; conditions: Medium: Wellcotest sensitivity test agar plus 7% lysed horse blood
Text: Antifungal testing against Candida albicans (CN1863) was done with slight modifications using a combination of broth and agar dilution assays as outlined in Laboratory Handbook of Medical Mycology, Chapter 6, pages 441-446, M. R. McGinnis, Academic Press, New York, NY, 1980.
Medium: Wellcotest* sensitivity test agar plus 7% lysed horse blood.

[2] = test system: Mycoplasma smegmatis (S3264); assay: Antibacterial screening, Mycoplasma smegmatis, agar dilution assay; format: cell-based
Text: (§1) Antibacterial testing against Mycoplasma smegmatis (S3264) and Streptococcus pyogens (CN10) was done with slight modifications using standard agar dilution assays as outlined in Manual of Clinical Microbiology, Second Ed., E. H. Lennette, E. H. Spaulding and J. P. Truant Eds., American Society for Microbiology, Washington, DC, 1974.

[3] = LD20 in the P388/0 test; format: in vivo, CD2-F1 mice; parameters: LD20: dose in mg/kg body weight; conditions: intraperitoneal, days 1, 5, 9, doses are on a mg/kg basis; for MTD: mouse, in vivo, ip, read-out: highest nontoxic dose (LD20 column, values in parentheses; LD20 was not determined)
Procedure: CD2-F1 mice, of the same sex, weighing 20±3 g, are used for this test. Control and test animals are injected intraperitoneally with a suspension of ~10^6 viable P388/0 tumor cells on day 0. In each test, several dose levels which bracket the LD20 of the compound are evaluated; each dose level group contains 6 animals. The test compounds are prepared either in physiologic saline containing 0.05% Tween 80 or distilled water containing 5% dextrose and are administered intraperitoneally on days 1, 5, and 9 relative to tumor implant. Doses are on a mg/kg basis according to individual animals' body weights. The day of death for each animal is recorded, the median identified for each group and the ratios of median survival time for treated (T)/control (C) groups are calculated. The criterion for activity is T/C×100≥120%.

[4] = test system: Nippostrongylus brasiliensis (Immature - free living stages); assay: Anthelmintic screening, Nippostrongylus brasiliensis; format: cell-based
Text: Anthelmintic testing against Nippostrongylus brasiliensis was done using methods as outlined in D. C. Jenkins, R. Armitage, and T. S. Carrington, Zetschrift fur Parasitenkunde 63, 261-269 (1980).

[5] = test system: Eimeria tenella; assay: Antiprotozoal screening, Eimeria tenella (in vitro); format: cell-based; conditions: read-out: Result (screen code, inhibition); for inhibition at 5 µg/mL: 5 mg/L
Text: Antiprotozoal testing against Eimeria tenella was done using methods outlined in V. S. Latter and D. Wilson, Parasitology 79, 169 (1979).

[6] = test system: Streptococcus pyogenes (CN10); assay: Antibacterial testing, Streptococcus pyogenes, agar dilution assay; format: cell-based
Text: as §1

[7] = LD50 Tests; conditions: in vivo; IP single dose - CD1 Male Mouse
Text: |(IP single dose - CD1 Male Mouse)

[8] = test system: Brugia pahangi microfilaria; assay: Screening against Brugia pahangi microfilaria (in vitro); format: cell-based; conditions: for inhibition at 12.5 µg/mL: 12.5 mg/L
Text: Anthelmintic testing against Brugia pahangi was done using methods outlined in D. A. Denham et al., Transactions of the Royal Society of Tropical Medicine and Hygiene 73, 673-676 (1979).

[9] = test system: Trichomonas vaginalis; assay: Antiprotozoal testing, Trichomonas vaginalis (in vitro); format: cell-based; conditions: Stenton or Modified Diamond's medium, read-out: Result (screen code, inhibition); for inhibition at 40 µg/mL: 40 mg/L
Text: Antiprotozoal testing against Trichomonas vaginalis was done using methods outlined by R. M. Michaels in Advances in Chemotherapy, 3, 39-108 (1968).
(Stenton or Modified Diamond's medium)

[10] = test system: Herpes simplex 1/vero; assay: Herpes simplex 1/vero plaque inhibition screen; format: cell-based
Text: Antiviral testing against Herpes simplex 1/vero was done using plaque inhibition methods as outlined in P. Collins and D. J. Bauer, Proc. N.Y. Acad. Sci. 284, 49 (1977) and by plaque reduction methods as outlined in P. Collins and D. J. Bauer, J. Antimicrobiol Chemotherapy 3, Supplement A, 73, (1977). The column headings labeled Score, Toxicity, and Zone of Inhibition refer to the plaque inhibition screen while the IC50 heading to the plaque reduction screen.

[11] = test system: B16 cells; assay: Melanotic Melanoma B16 test; format: in vivo, B6C3-F1 mice; conditions: dosing as in P388/0 test, active if ≥125%
Text: Methods for evaluating the antitumor activity of these compounds are essentially those used in the Tumor Panel by the Development Therapeutics Program, Division of Cancer Treatment, National Cancer Institute, A. Goldin, et al., Methods in Cancer Research, Vol. XVI, p. 165, Academic Press (1979). Some modifications in dose level and schedule have been made to increase the testing efficiency.
B6C3-F1 mice of the same sex, weighing 20+3 g, are used for this test. A suspension of B16 cells is prepared from a non-necrotic portion of solid tumor tissue obtained from a passage mouse. One gram of tumour is homogenized in 9 mL ice-cold Earle's salts solution and filtered through 1000 mesh screen to remove debris. 0.5 mL of the resulting brei is injected intraperitoneally into each animal. Dosing is carried out as in the P388/0 and L1210 tests. Days of death are recorded for a 60 day period, and T/C ratio calculated as in the P388/0 and L1210 tests. The criterion for activity is T/C×100≥125%.

[12] = read-out: Result (screen code, inhibition)

`CC(O)CNCc1ccc2ccc3cccc4ccc1c2c34` (stereo not shown) [Example 8, 1-((1-pyrenylmethyl)amino)-2-propanol hydrochloride] showed an MIC [1] of 50 µg/mL, an MIC [2] of 10 µg/mL and an LD20 [3] of 600.
Work on `OCCNCc1ccc2ccc3cccc4ccc1c2c34` [Example 13, 2-((1-Pyrenylmethyl)amino)ethanol hydrochloride] yielded an MIC [1] of 10 µg/mL, an MIC [4] of 50 µg/mL and an inhibition at 5 µg/mL ([5]; in vitro) of 26 to 50%. For the same molecule, the MIC [2] was 5 µg/mL, the MIC [6] was 5 µg/mL and the LD20 [3] was 220. For the same molecule, the LD50 [7] was 160 mg/kg.
`CC(C)C(CO)NCc1ccc2ccc3cccc4ccc1c2c34` (stereo not shown) [Example 4, 3-Methyl-2-((1-pyrenylmethyl)amino)butanol hydrochloride] showed an MIC [4] of 10 µg/mL, an inhibition at 12.5 µg/mL [8, 12] of 26 to 50% and an LD20 [3] of 450.
With `O[C@@H]1CCC[C@H](O)[C@H]1NCc1ccc2ccc3cccc4ccc1c2c34` [Example 23B, (1α,2β,3α)-2-((1-Pyrenylmethyl)amino)-1,3-cyclohexanediolmethanesulfonate] the LD20 [3] was 180.
With `COCC(C)(CO)NCc1ccc2ccc3cccc4ccc1c2c34` (stereo not shown) [Example 22D, 3-methoxy-2-methyl-2-((1-pyrenylmethyl)amino)-1-propanol methanesulfonate.1/3H2 O] the LD20 [3] was 135.
With `CCC(O)CNCc1ccc2ccc3cccc4ccc1c2c34` (stereo not shown) [Example 9, 1-((1-Pyrenylmethyl)amino)-2-butanol hydrochloride] the MIC [1] was 10 µg/mL, the MIC [4] was 50 µg/mL and the inhibition at 40 µg/mL [9] was 26 to 50%. For the same molecule, the MIC [2] was 10 µg/mL, the MIC [6] was 10 µg/mL and the LD50 [7] was 350 mg/kg.
In the case of `CC(O)CCNCc1ccc2ccc3cccc4ccc1c2c34` (stereo not shown) [Example 14, 4-((1-Pyrenylmethyl)amino)-2-butanol hydrochloride], the MIC [1] is reported as 50 µg/mL, the MIC [4] is reported as 50 µg/mL and the inhibition at 0.31 µg/mL ([5]; 0.31 mg/L, in vitro) is reported as 26 to 50%. It also gave an MIC [2] of 10 µg/mL, an MIC [6] of at most 5 µg/mL and an LD50 [7] of 130 mg/kg.
In the case of `C[C@H](O)[C@@](C)(CO)NCc1ccc2ccc3cccc4ccc1c2c34` (relative stereo) [Example 20G, (+-)(2R*,3S*)-2-((1-Pyrenylmethyl)amino)-2-methyl-1,3-butanediol hydrochloride], the LD20 [3] is reported as 125.
For `CC(=O)OCC(C)(COC(C)=O)NCc1ccc2ccc3cccc4ccc1c2c34` [Example 18, 2-methyl-2-(1-pyrenylmethyl)amino)-1,3-propanediol diacetate], the MIC [2] was at most 10 µg/mL, the MIC [6] was 30 µg/mL and the MTD [3] was 300 mg/kg. For the same molecule, the Score [10] was -3 (51-75% inhibition) and the “Zone of Inhibition” value [10] was 30.
`OCC(CO)NCc1ccc2ccc3cccc4ccc1c2c34` [Example 11, 2-((1-Pyrenylmethyl)amino)-1,3-propanediol hydrochloride] gave an MIC [1] of 50 µg/mL, an MIC [4] of at least 50 µg/mL and an inhibition at 40 µg/mL [9] of 76 to 100%. The inhibition at 5 µg/mL ([5]; in vitro) was 76 to 100%, the MIC [2] was 10 µg/mL and the MIC [6] was 5 µg/mL. It also gave an LD20 [3] of 450 and an LD50 [7] of 250 mg/kg.
Molecule `CC(=O)OCC(COC(C)=O)(COC(C)=O)NCc1ccc2ccc3cccc4ccc1c2c34` [Example 15, 2-Acetoxymethyl-1,3,-O-diacetyl-2-((1-pyrenylmethyl)amino)-1,3-propanediol] has an MIC [1] of over 50 µg/mL, an MIC [2] of at most 10 µg/mL and an MTD [3] of 500 mg/kg.
With `CCOCC(CO)(CO)NCc1ccc2ccc3cccc4ccc1c2c34` [Example 21C, 2-Ethoxymethyl-2-((1-pyrenylmethyl)amino)-1,3-propanediol hydrochloride 1/3H2 O] the LD20 [3] was 225.
`CC(CO)(CO)NCc1cc2cccc3ccc4cccc1c4c32` [Example 19, 2-methyl-2-((4-pyrenylmethyl)amino)-1,3-propanediol hydrochloride.1/4H2 O] showed an MIC [1] of 30 µg/mL, an MIC [2] of 10 µg/mL and an LD20 [3] of 45.
With `CC(C)(O)CNCc1ccc2ccc3cccc4ccc1c2c34` [Example 12, 2-(((1-Pyrenylmethyl)amino)methyl)-2-propanol hydrochloride] the MIC [1] was over 50 µg/mL, the inhibition at 12.5 µg/mL [8, 12] was 26 to 50% and the inhibition at 5 µg/mL ([5]; in vitro) was 76 to 100%. For the same molecule, the MIC [2] was over 50 µg/mL.
`CC(C)(CO)NCc1ccc2ccc3cccc4ccc1c2c34` [Example 2B, 2-Methyl-2-((1-pyrenylmethyl)amino)propanol] showed an LD20 [3] of 450.
In the case of `CCC(CO)(CO)NCc1ccc2ccc3cccc4ccc1c2c34` [Example 5A, 2-Ethyl-2-((1-pyrenylmethyl)amino)-1,3-propanediol hydrochloride], the MIC [1] is reported as 50 µg/mL, the “T/C × 100% Excluding 60 day Survivors” value ([11]; 225 mg/kg) is reported as “+159%” and the MIC [4] is reported as 100 µg/mL. The inhibition at 40 µg/mL [9] was 51 to 75%, the MIC [2] was 3 µg/mL and the MIC [6] was 3 µg/mL. For the same molecule, the LD20 [3] was 225 and the LD50 [7] was 160 mg/kg.
With `OCCCNCc1ccc2ccc3cccc4ccc1c2c34` [Example 3, 3-((1-pyrenylmethyl)amino)propanol hydrochloride] the MIC [1] was 30 µg/mL, the MIC [4] was 1 µg/mL and the inhibition at 6.25 µg/mL ([9]; 6.25 mg/L) was 76 to 100%. It also gave an MIC [8] of 0.78 µg/mL, an inhibition at 0.78 µg/mL ([8]; 0.78 mg/L, read-out: Result (screen code, inhibition)) of 76 to 100% and an MIC [2] of under 5 µg/mL. For the same molecule, the MIC [6] was 10 µg/mL and the LD20 [3] was 450.
For `CCC(CO)NCc1ccc2ccc3cccc4ccc1c2c34` (stereo not shown) [Example 6, 2-((1-Pyrenylmethyl)amino)butanol hydrochloride], the MIC [1] was 50 µg/mL, the inhibition at 40 µg/mL [9] was 76 to 100% and the MIC [2] was 10 µg/mL. The LD20 [3] was 450, the Score [10] was -2 (26-50% inhibition) and the LD50 [7] was 350 mg/kg.
For `OCC(CO)(CO)NCc1ccc2ccc3cccc4ccc1c2c34` [Example 10, 2-Hydroxymethyl-2-((1-pyrenylmethyl)amino)-1,3-propanediol hydrochloride], the MIC [1] was over 50 µg/mL, the “T/C × 100% Excluding 60 day Survivors” value ([11]; 150 mg/kg) was “+133%” and the MIC [4] was at least 50 µg/mL. The inhibition at 0.37 µg/mL [5] was 76 to 100%, the MIC [2] was over 50 µg/mL and the MIC [6] was 5 µg/mL. The LD20 [3] was 215 and the LD50 [7] was 160 mg/kg.
Molecule `CC(CO)NCc1ccc2ccc3cccc4ccc1c2c34` (stereo not shown) [Example 7, 2-((1-Pyrenylmethyl)amino)propanol hydrochloride] has an MIC [1] of 50 µg/mL, an MIC [2] of at most 5 µg/mL and an LD20 [3] of 600.
In the case of `CC(C)(CO)NCc1ccc2ccc3cccc4ccc1c2c34` [Example 2A, 2-methyl-2-((1-pyrenylmethyl)amino)propanol hydrochloride], the MIC [1] is reported as 10 µg/mL, the MIC [4] is reported as 10 µg/mL and the inhibition at 40 µg/mL [9] is reported as 51 to 75%. For the same molecule, the MIC [8] was 3.1 µg/mL, the inhibition at 3.1 µg/mL ([8]; 3.1 mg/L, read-out: Result (screen code, inhibition)) was 76 to 100% and the inhibition at 5 µg/mL ([5]; in vitro) was 26 to 50%. For the same molecule, the MIC [2] was at most 5 µg/mL, the MIC [6] was 10 µg/mL and the LD20 ([3]; hydrochloride) was 170.
With `CCC(COC(C)=O)(COC(C)=O)NCc1ccc2ccc3cccc4ccc1c2c34` [Example 16, 2-Ethyl-2-((1-pyrenylmethyl)amino)-1,3-propanediol diacetate] the MTD [3] was 675 mg/kg and the Score [10] was -4 (76-100% inhibition).
